The conditions of this data set: 298.15 K, 101.33 kPa, Liquid; for viscosity: Capillary tube (Ostwald / Ubbelohde) method.

± gives the expanded uncertainty stated by the source.

This note sets out measurements from the NIST ThermoML archive (doi:10.1021/je700710d).

In general, viscosity refers to the resistance of a fluid to flow. One may read the mass density as the mass of a sample divided by its volume.

As for `CCOS(=O)(=O)[O-].CCn1cc[n+](C)c1` [1-ethyl-3-methylimidazolium ethyl sulfate], the viscosity is recorded as 97.58 ± 4 mPa·s. For the same molecule, the mass density (Vibrating tube method) amounted to 1237.63 ± 8.3 kg/m3.

In the case of `CCO` [ethanol], the mass density came out at 785.46 ± 0.47 kg/m3 and the viscosity worked out at 1.082 ± 0.009 mPa·s.
